This is an account of results in patent US20240294534A1, “IMIDAZOTRIAZINE DERIVATIVES AS IL-17 MODULATORS” (UCB BIOPHARMA SRL, priority 2021, published 2024).

For the test, the target named is T1, IL-17A (Homo sapiens, UniProt Q16552).
T1 sequence (Q16552 24-155): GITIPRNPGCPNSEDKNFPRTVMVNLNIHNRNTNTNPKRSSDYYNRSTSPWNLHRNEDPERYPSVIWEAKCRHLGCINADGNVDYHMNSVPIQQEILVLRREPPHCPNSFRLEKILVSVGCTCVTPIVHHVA
The test is described as follows: Inhibition of IL-17A induced IL-6 release from dermal fibroblast cell line (HDF cell line assay). The format is cell-based. The settings on record: human dermal fibroblasts stimulated with IL-17A (50 pM) + TNF-α (25 pM); IL-6 measured by HTRF; pIC50 = -log10[IC50], IC50 molar. An excerpt: Inhibition of IL-17A Induced IL-6 Release from Dermal Fibroblast Cell Line
The purpose of this assay is to test the neutralising ability to IL-17 proteins, in a human primary cell system. Stimulation of normal human dermal fibroblasts (HDF) with IL-17 alone produces only a very weak signal but in combination with certain other cytokines, such as TNFα, a synergistic effect can be seen in the production of inflammatory cytokines, i.e. IL-6.
HDFs were stimulated with IL-17A (50 pM) in combination with TNF-α (25 pM). The resultant IL-6 response was then measured using a homogenous time-resolved FRET kit from Cisbio. The kit utilises two monoclonal antibodies, one labelled with Eu-Cryptate (Donor) and the second with d2 or XL665 (Acceptor). The intensity of the signal is proportional to the concentration of IL-6 present in the sample (Ratio is calculated by 665/620×104).
The ability of a compound to inhibit IL-17 induced IL-6 release from human dermal fibroblasts is measured in this assay.
HDF cells (Sigma #106-05n) were cultured in complete media (DMEM+10% FCS+2 mM L-glutamine) and maintained in a tissue culture flask using standard techniques. Cells were harvested from the tissue culture flask on the morning of the assay using TrypLE (Invitrogen #12605036). The TrypLE was neutralised using complete medium (45 mL) and the cells were centrifuged at 300×g for 3 minutes. The cells were re-suspended in complete media (5 mL) counted and adjusted to a concentration of 3.125×10^4 cells/mL before being added to the 384 well assay plate (Corning #3701) at 40 μL per well. The cells were left for a minimum of three hours, at 37° C./5% CO2, to adhere to the plate.
Compounds were serially diluted in DMSO before receiving an aqueous dilution into a 384 well dilution plate (Greiner #781281), where 5 μL from the titration plate was transferred to 45 μL of complete media and mixed to give a solution containing 10% DMSO.
Mixtures of TNFα and IL-17 cytokine were prepared in complete media to final concentrations of TNFα 25 pM/IL-17A 50 pM, then 30 μL of the solution was added to a 384 well reagent plate (Greiner #781281).
10 μL from the aqueous dilution plate was transferred to the reagent plate containing 30 μL of the diluted cytokines, to give a 2.5% DMSO solution. The compounds were incubated with the cytokine mixtures for 5 h at 37° C. After the incubation, 10 μL was transferred to the assay plate, to give a 0.5% DMSO solution, then incubated for 18-20 h at 37° C./5% CO2.
From the Cisbio IL-6 FRET kit (Cisbio #62IL6PEB) europium cryptate and Alexa 665 were diluted in reconstitution buffer and mixed 1:1, as per kit insert. To a white low volume 384 well plate (Greiner #784075) were added FRET reagents (10 μL), then supernatant (10 μL) was transferred from the assay plate to Greiner reagent plate. The mixture was incubated at room temperature for 3 h with gentle shaking (<400 rpm) before being read on a Synergy Neo 2 plate reader (Excitation: 330 nm; Emission: […]).
(TR-FRET usually uses a lanthanide donor and a delayed reading to cut background.)

In general, pIC50 refers to the IC50 on a negative log10 scale, so that one unit is a factor of ten.

The structures appear in SMILES notation. pIC50: −log10 of the molar value.

On to `Cc1nonc1C(=O)N[C@H](c1cn2ncc(C3(C(=O)NCC(C)(F)F)CCN(C4COC4)CC3)nc2n1)C1CCC(F)(F)CC1` [Example 56, N—[(S)-(4,4-Difluorocyclohexyl){3-[4-(2,2-difluoropropylcarbamoyl)-1-(oxetan-3-yl)-piperidin-4-yl]imidazo[1,2-b][1,2,4]triazin-6-yl}methyl]-4-methyl-1,2,5-oxadiazole-3-carboxamide], for which the negative logarithm of the IC50 (pIC50) was 7.80.

For `CC(C)n1ncnc1C(=O)N[C@H](c1cn2ncc([C@H]3C[C@@H](O)CCN3C(=O)[C@@H]3CCC(F)(F)CO3)nc2n1)C1CCC(F)(F)CC1` (single isomer, unassigned) [Example 51], the pIC50 is 6.60.

Regarding `Cc1nonc1C(=O)N[C@H](c1cn2ncc([C@H]3C[C@@](O)(C(F)(F)F)CCN3C(=O)C34CC(F)(C3)C4)nc2n1)C1CCC(F)(F)CC1` (single isomer, unassigned) [Example 33], the pIC50 is 6.90.

On to `Cc1nonc1C(=O)N[C@H](c1cn2ncc([C@@H]3C[C@](O)(C(F)F)CCN3C(=O)[C@@H]3CCC(F)(F)CO3)nc2n1)C1CCC(F)(F)CC1` (single isomer, unassigned) [Example 30], for which the pIC50 was 7.90.

`Cc1nonc1C(=O)N[C@H](c1cn2ncc([C@H]3COCCN3C(=O)C34CC(F)(C3)C4)nc2n1)C1CCC(F)(F)CC1` (single isomer, unassigned) [Example 4]: the pIC50 was 6.20.

In the case of `Cc1nonc1C(=O)N[C@H](c1cn2ncc([C@H]3C[C@@](O)(C(F)F)CCN3C(=O)C34CC(F)(C3)C4)nc2n1)C1CCC(F)(F)CC1` (single isomer, unassigned) [Example 29], the pIC50 is 6.20.

As to `Cc1nonc1C(=O)N[C@H](c1cn2ncc([C@@H]3C[C@](C)(O)CCN3C(=O)[C@@H]3CCC(F)(F)CO3)nc2n1)C1CCC(F)(F)CC1` (single isomer, unassigned) [Example 34], the pIC50 was 8.40.

On to `Cc1nonc1C(=O)N[C@H](c1cn2ncc([C@@H]3C[C@@](O)(C(F)F)CCN3C(=O)C34CC(F)(C3)C4)nc2n1)C1CCC(F)(F)CC1` (single isomer, unassigned) [Example 26], for which the pIC50 is 8.00.

In the case of `Cn1nccc1C(=O)N[C@H](c1cn2ncc([C@H]3C[C@](O)(C(F)F)CCN3C(=O)[C@@H]3CCC(F)(F)CO3)nc2n1)C1CCC(F)(F)CC1` (single isomer, unassigned) [Example 47], the pIC50 is 6.20.

On to `Cc1nonc1C(=O)N[C@H](c1cn2ncc([C@H]3C[C@](O)(C(F)(F)F)CCN3C(=O)C34CC(F)(C3)C4)nc2n1)C1CCC(F)(F)CC1` (single isomer, unassigned) [Example 10], for which the pIC50 is 6.30.

Turning to `Cc1nonc1C(=O)N[C@H](c1cn2ncc([C@@H]3C[C@](C)(O)CCN3C(=O)C34CC(F)(C3)C4)nc2n1)C1CCC(F)(F)CC1` (single isomer, unassigned) [Example 36], the pIC50 was 7.90.

As for `CC(C)n1ncnc1C(=O)N[C@H](c1cn2ncc([C@@H]3C[C@](C)(O)CCN3C(=O)[C@@H]3CCC(F)(F)CO3)nc2n1)C1CCC(F)(F)CC1` (single isomer, unassigned) [Example 52], the pIC50 is 8.10.

As to `CC(C)n1ncnc1C(=O)N[C@H](c1cn2ncc([C@H]3C[C@@](C)(O)CCN3C(=O)[C@@H]3CCC(F)(F)CO3)nc2n1)C1CCC(F)(F)CC1` (single isomer, unassigned) [Example 53], the pIC50 is 6.30.

`Cc1nonc1C(=O)N[C@H](c1cn2ncc([C@@H]3COCCN3C(=O)[C@@H]3CCC(F)(F)CO3)nc2n1)[C@H]1CC[C@H](C(F)(F)F)CC1` (single isomer, unassigned) [Example 24]: the pIC50 is 8.00.

As for `CC(C)n1ncnc1C(=O)N[C@H](c1cn2ncc([C@@H]3C[C@@](O)(C(F)F)CCN3C(=O)[C@@H]3CCC(F)(F)CO3)nc2n1)C1CCC(F)(F)CC1` (single isomer, unassigned) [Example 49], the pIC50 was 6.20.

For the molecule `Cc1nonc1C(=O)N[C@H](c1cn2ncc([C@@H]3C[C@@H](O)CCN3C(=O)[C@@H]3CCC(F)(F)CO3)nc2n1)C1CCC(F)(F)CC1` (single isomer, unassigned) [Example 44], the negative-log IC50 (pIC50) was 6.90.

As for `Cc1nonc1C(=O)N[C@H](c1cn2ncc([C@@H]3COCCN3C(=O)[C@@H]3CCC(F)(F)CO3)nc2n1)C(C1CC1)C1CC1` (single isomer, unassigned) [Example 5], the pIC50 is 8.40.

With `O=C([C@@H]1CCC(F)(F)CO1)N1CC[C@@](O)(C(F)(F)F)C[C@@H]1c1cnn2cc([C@@H](NC(=O)C3(F)CC3)C3CCC(F)(F)CC3)nc2n1` (single isomer, unassigned) [Example 21], the pIC50 was 6.40.

As to `Cc1nonc1C(=O)N[C@H](c1cn2ncc([C@@H]3C[C@H](O)CCN3C(=O)[C@@H]3CCC(F)(F)CO3)nc2n1)C1CCC(F)(F)CC1` (single isomer, unassigned) [Example 42], the pIC50 is 7.90.

For `O=C(N[C@H](c1cn2ncc(C3CS(=O)(=O)CCN3C(=O)C34CC(F)(C3)C4)nc2n1)[C@H]1CC[C@H](C(F)(F)F)CC1)OCc1ccccc1` (stereo partly drawn) [Example 13, Benzyl N—[(S)-{3-[4-(3-fluorobicyclo[1.1.1]pentane-1-carbonyl)-1,1-dioxo-1,4-thiazinan-3-yl]imidazo[1,2-b][1,2,4]triazin-6-yl}[4-(trifluoromethyl)cyclohexyl]methyl]carbamate], the pIC50 is 7.30.

With `O=C(N[C@H](c1cn2ncc([C@@H]3C[C@@](O)(C(F)(F)F)CCN3C(=O)C34CC(F)(C3)C4)nc2n1)C1CCC(F)(F)CC1)C1(F)CC1` (single isomer, unassigned) [Example 11], the pIC50 is 7.30.

Turning to `Cc1nonc1C(=O)N[C@H](c1cn2ncc([C@@H]3C[C@@](O)(C(F)F)CCN3C(=O)[C@@H]3CCC(F)(F)CO3)nc2n1)C1CCC(F)(F)CC1` (single isomer, unassigned) [Example 22], the pIC50 is 8.20.

Regarding `Cc1nonc1C(=O)N[C@H](c1cn2ncc([C@H]3C[C@@](O)(C(F)F)CCN3C(=O)[C@@H]3CCC(F)(F)CO3)nc2n1)C1CCC(F)(F)CC1` (single isomer, unassigned) [Example 31], the pIC50 is 7.80.

On to `Cc1nonc1C(=O)N[C@H](c1cn2ncc([C@H]3C[C@](O)(C(F)F)CCN3C(=O)[C@@H]3CCC(F)(F)CO3)nc2n1)C1CCC(F)(F)CC1` (single isomer, unassigned) [Example 23], for which the pIC50 is 6.80.

Turning to `Cc1nonc1C(=O)N[C@H](c1cn2ncc(C3(C(=O)NCC(C)(F)F)CCOCC3)nc2n1)C1CCC(F)(F)CC1` [Example 17, N—[(S)-(4,4-Difluorocyclohexyl){3-[4-(2,2-difluoropropylcarbamoyl)tetrahydropyran-4-yl]imidazo[1,2-b][1,2,4]triazin-6-yl}methyl]-4-methyl-1,2,5-oxadiazole-3-carboxamide], the pIC50 is 7.90.
